# US11291624B2, “Compositions comprising active botanical ingredients” (CONOPCO, INC., priority 2018, dated 2022)
# Tested on: MelaKuits reconstructed human pigmented LSE model
# Assay: Inhibition of melanin in a living skin-equivalent (LSE) model
# Type: cell-based
# Settings: for Melanin content as % of control: UVB-exposed pigmented LSE, the lower the better
# Method: Details of the test are as follows:
# Materials: • MelaKuits®, a reconstructed human pigmented LSE model, derived from 3D culture of normal human epidermal keratinocytes and melanocytes from Asian donors.
# The pigmented LSE model was exposed to UVB (50 mJ/cm^2) for seven consecutive days day at periodic intervals of 24 hours to stimulate the synthesis of melanin. The extracts were applied topically on each LSE model on day 4 and day 6 with an interval of 48 hours for refreshing. For comparison, a blank experiment was carried out in which the LSE was neither exposed to UV radiation nor was any extract applied thereon. A control experiment was also carried out in which the LSE model was exposed to UV radiation, but no other treatment was followed.
# On day 8, the appearance of each LSE model was assessed by photographing them. Thereafter, all the models subjected to the test were separated from their respective inserts and placed on a white plastic plate with the stratum corneum side facing up. The luminance (L*) value was read using a spectrophotometer CM700 (Konica-Minolta). For each model, the luminance was measured thrice, and the mean value was calculated for comparison.
SMILES,"Melanin content as % of control (75 μM, topical on day 4 and day 6, read on day 8)","Effectiveness in reducing melanin content, in words (positive control, Table 2)",Melanin content as % of control (2.5 μM)
O=c1cc(CO)occ1O [Kojic acid],77.4 % of control,most effective ingredient,
CC1(C)C=Cc2c(ccc3c2OC[C@@H](c2ccc(O)cc2O)C3)O1 [Glabridin],,,97.1 % of control
